pIC50: −log10 of the molar value.
Columns and labels:
PI3Kα = biological target: T1, PI3Kα (Homo sapiens, UniProt P42336); test: Kinase enzyme assay (ADP-Glo), PI3Kα; format: biochemical; details: read-out: In Vitro Enzymatic IC50 PI3Kα
T1 construct: purchased Invitrogen, or BPS Bioscience Inc., or SignalChem PV4788 / 40620 / P27-18H

p110α(H1047R)/p85α = biological target: T2, p110α(H1047R)/p85α (Homo sapiens, UniProt P42336, H1047R); test: Kinase enzyme assay (ADP-Glo), PI3Kα (H1047R); format: biochemical; details: read-out: In Vitro Enzymatic IC50 PI3Kα (H1047R)
T2 construct: purchased BPS 40641
T2 sequence (P42336 whole entry H1047R): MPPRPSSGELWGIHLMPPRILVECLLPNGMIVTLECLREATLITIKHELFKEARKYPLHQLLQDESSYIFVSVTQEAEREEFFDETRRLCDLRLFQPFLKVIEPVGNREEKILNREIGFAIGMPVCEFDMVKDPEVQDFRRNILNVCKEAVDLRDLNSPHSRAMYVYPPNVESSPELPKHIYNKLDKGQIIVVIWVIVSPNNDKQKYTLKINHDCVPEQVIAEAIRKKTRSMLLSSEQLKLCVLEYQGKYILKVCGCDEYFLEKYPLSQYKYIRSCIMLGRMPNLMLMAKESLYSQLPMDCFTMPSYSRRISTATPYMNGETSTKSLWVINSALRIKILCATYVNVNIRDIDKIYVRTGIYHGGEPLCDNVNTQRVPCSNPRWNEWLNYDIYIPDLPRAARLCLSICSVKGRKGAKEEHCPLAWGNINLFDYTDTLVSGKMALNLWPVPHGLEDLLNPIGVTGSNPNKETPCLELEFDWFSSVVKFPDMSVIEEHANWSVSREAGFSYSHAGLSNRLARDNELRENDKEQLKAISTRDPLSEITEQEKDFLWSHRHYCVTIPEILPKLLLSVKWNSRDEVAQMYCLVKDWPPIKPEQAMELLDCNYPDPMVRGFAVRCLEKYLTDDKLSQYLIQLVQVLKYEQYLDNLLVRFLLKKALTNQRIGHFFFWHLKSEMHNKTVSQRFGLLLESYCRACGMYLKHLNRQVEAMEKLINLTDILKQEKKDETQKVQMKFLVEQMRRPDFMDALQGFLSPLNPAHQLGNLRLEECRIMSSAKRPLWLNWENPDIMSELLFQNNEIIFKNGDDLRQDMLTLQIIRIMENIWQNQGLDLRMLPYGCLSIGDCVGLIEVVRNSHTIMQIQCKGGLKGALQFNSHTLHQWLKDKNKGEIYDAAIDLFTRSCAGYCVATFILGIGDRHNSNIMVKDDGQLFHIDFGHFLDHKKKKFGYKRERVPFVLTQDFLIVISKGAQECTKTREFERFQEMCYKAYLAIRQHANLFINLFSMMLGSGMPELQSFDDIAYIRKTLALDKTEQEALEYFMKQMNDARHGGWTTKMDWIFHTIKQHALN
T2 sequence (P27986 whole entry partner): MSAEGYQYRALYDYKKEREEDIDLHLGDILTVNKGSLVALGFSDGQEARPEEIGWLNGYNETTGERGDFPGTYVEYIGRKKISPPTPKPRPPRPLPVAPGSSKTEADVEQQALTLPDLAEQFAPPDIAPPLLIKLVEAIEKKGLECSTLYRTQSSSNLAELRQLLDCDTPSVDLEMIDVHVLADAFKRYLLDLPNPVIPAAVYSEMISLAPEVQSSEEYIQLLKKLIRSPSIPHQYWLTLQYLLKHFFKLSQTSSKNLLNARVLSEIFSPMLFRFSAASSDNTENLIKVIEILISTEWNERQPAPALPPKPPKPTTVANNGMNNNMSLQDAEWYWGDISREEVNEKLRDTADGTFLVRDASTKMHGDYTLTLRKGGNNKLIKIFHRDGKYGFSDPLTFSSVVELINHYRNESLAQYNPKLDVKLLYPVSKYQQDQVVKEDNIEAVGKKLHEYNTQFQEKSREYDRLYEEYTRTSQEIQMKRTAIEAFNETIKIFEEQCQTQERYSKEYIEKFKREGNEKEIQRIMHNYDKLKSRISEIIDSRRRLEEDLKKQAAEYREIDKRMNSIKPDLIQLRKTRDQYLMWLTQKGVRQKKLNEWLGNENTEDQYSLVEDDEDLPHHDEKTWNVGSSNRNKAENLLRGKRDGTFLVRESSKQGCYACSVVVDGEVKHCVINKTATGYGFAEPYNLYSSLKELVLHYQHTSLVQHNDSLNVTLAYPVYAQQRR

PI3Kβ = biological target: T3, PI3Kβ (Homo sapiens, UniProt P42338); test: Kinase enzyme assay (ADP-Glo), PI3Kβ; format: biochemical; details: read-out: In Vitro Enzymatic IC50 PI3Kβ
T3 construct: purchased SignalChem or BPS P28-10H / 40622
T3 sequence (P42338 whole entry): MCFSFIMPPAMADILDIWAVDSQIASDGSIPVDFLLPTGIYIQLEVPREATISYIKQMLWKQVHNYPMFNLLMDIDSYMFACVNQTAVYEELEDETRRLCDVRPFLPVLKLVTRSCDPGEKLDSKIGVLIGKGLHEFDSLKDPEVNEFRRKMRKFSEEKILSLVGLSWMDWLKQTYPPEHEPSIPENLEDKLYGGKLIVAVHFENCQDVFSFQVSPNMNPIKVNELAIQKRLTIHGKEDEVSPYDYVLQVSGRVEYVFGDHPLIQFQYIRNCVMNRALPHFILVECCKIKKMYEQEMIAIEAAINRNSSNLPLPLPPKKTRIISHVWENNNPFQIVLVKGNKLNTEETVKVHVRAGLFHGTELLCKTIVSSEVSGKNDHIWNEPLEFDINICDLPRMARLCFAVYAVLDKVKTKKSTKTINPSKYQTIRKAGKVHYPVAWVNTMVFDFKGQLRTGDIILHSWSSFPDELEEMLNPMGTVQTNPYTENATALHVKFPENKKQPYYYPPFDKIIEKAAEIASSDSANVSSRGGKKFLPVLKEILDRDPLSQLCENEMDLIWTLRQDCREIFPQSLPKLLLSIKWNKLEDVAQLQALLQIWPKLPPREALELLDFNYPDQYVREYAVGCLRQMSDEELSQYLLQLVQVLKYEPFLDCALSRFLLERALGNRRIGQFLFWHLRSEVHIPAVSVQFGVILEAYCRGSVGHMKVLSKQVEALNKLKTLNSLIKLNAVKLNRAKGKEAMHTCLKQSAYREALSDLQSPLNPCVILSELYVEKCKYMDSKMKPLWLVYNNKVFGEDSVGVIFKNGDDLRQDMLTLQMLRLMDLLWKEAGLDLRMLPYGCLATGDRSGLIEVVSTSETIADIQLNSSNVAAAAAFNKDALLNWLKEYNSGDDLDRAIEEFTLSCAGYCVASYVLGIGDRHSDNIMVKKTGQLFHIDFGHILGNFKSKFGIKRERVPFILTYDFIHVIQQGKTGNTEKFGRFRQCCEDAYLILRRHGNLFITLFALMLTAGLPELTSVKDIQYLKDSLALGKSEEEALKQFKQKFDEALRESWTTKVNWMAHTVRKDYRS
T3 sequence (P27986 whole entry partner): as the sequence (P27986 whole entry partner) above

A549 = test: Anti-proliferative assay (cellular IC50), A549; details: Homo sapiens, A549, read-out: In Vitro Cellular IC50 A549
Procedure: (§2) Cells were cultivated at 37° C., 5% CO2 in media containing 10% FBS and 2 mM glutamine Cells were routinely monitored with MycoAlert™ PLUS Mycoplasma Detection Kit (Lonza Walkersville, Inc.) to make sure they were mycoplasma free. Antibiotics (100 U/mL of penicillin and 100 μg/mL of streptomycin) were only added to the media used for compound dilution and cells in 96-well assay plates.
(§3) For a typical screening experiment, cells (100 μL/well) are inoculated into 96 well microtiter plates at plating densities ranging from 2,000 to 30,000 cells/well depending on the doubling time of individual cell lines and assay linearity. […] Suspension cells are treated with test compounds immediately after cell inoculation.
(§4) Test compounds are serially diluted (3-fold or 4-fold, 8-concentration) using the same media and added to the plates (15 to 25 μL/well). After 72 h of cultivation, the plates are assayed for cell cytotoxicity/viability by using the following two methods.
(§5) Cells in plates are fixed with cold trichloroacetic acid (TCA) (50% w/v in DI water, 1/4 volume of the medium in each well), and incubated at 4° C. for 1 h (adherent cells) or 2 h (suspension cells). The plates are washed 5 times (tap water×3, DI water×2) and air-dried. […]
(§6) The plates are added CellTiter-Glo® Reagent (95 μL/well) and read the luminescence on a BioTek H4 reader per manufacture's protocol. […]

A-431 = test: Anti-proliferative assay (cellular IC50), A-431; details: Homo sapiens, A-431, read-out: In Vitro Cellular IC50 A-431
Procedure: as §2, §3, §4, §5, §6

[1] = test system: histone 3 (Lys 9) and α-tubulin acetylation (HDACs) in PC-3 cells; test: Western blot, acetylation of histone 3 (Lys 9) and α-tubulin in PC-3 cells; format: cell-based, human; details: 24 h, 1 or 10 μM
Procedure: Proteins in cell lysates are resolved by SDS-PAGE and transferred to PVDF and probed with appropriate primary and secondary antibodies. […] Representative Western blot images are shown in FIG. 15 and analyzed results are presented by FIGS. 17 to 20.
PC-3 cells were treated with test compounds at the following concentrations (all contain 0.1% DMSO) for 24 h at 37° C., and then processed according to section of Western Blot Analysis.
The graph represents results from two Western Blot analyses. […] Vehicle DMSO (0.1%) was used as blank control, and its acH3 level was normalized to 1. Y Axis is expressed as Mean±SD if applicable.
Vehicle DMSO (0.1%) as blank control, and its acetylation level was normalized to 1. Y Axis is expressed as Mean±SD if applicable.

PC-3 tumors = test: Target modulation in PC-3 prostate cancer xenograft (histone H3 acetylation, Western blot); format: in vivo, mouse; details: BALB/c nude mice, oral, EX1 150 mg/kg, EX78 100 mg/kg
Source text: Blood samples, tumors and other tissues were collected for PK/PD studies at the indicated time points (two mice each time point).
The lanes and the concentrations used were as follows: […]

[2] = Microsomal stability, mouse liver microsomes; details: mouse, microsomes, 0.5 h, 5 μM, pH 7.4
Method in brief: (§1)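 Liver microsomes at 0.5 mg/mL protein incubated with compound for 30 min (mouse), 45 min (rat), or 30 or 45 min (human). Reaction stopped with ice-cold acetonitrile containing 0.3% formic acid; % parent remaining measured by LC-MS.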

[3] = Microsomal stability, human liver microsomes; details: human, microsomes, 0.75 h, 5 μM, pH 7.4
Method in brief: as §1

[4] = Microsomal stability, rat liver microsomes; details: rat, microsomes, 0.75 h, 5 μM, pH 7.4
Method in brief: as §1

T1 sequence (P42336 whole entry): as the sequence (P42336 whole entry H1047R) above, with R1047H counted along it
T1 sequence (P27986 whole entry partner): as the sequence (P27986 whole entry partner) above

| pIC50 (PI3Kα) | pIC50 (p110α(H1047R)/p85α) | pIC50 (PI3Kβ) | pIC50 (A549) | pIC50 (A-431) | Microsomal Stability MLM, % of remaining parent compound [2] [%] | Microsomal Stability HLM, % of remaining parent compound [3] [%] | Microsomal Stability RLM, % of remaining parent compound [4] [%] | Compound | Hyperacetylation of histone 3 (Lys 9) and α-tubulin [1] | Hyperacetylation of H3 in PC-3 tumors (PC-3 tumors) |
| --- | --- | --- | --- | --- | --- | --- | --- | --- | --- | --- |
| 7.00 to 8.00 | 7.00 to 8.00 | 7.00 to 8.00 |  |  |  |  |  | CCn1c(CN(C)Cc2ccc(C(=O)NO)cc2)nc2c(N3CCOCC3)nc(-c3cnc(N)nc3)nc21 [compound 7] |  |  |
|  |  |  | > 6.30 | > 6.30 |  |  |  | CS(=O)(=O)N1CCN(Cc2cc3nc(-c4cccc5[nH]ncc45)nc(N4CCOCC4)c3s2)CC1 [GDC-0941, reference compound] |  |  |
| 5.00 to 6.00 | 5.00 to 6.00 |  | 5.70 to 6.30 | 5.00 to 5.70 | 96 | 101 | 70 | CC(C)n1cnc2c(-c3cccc(OCCCC(=O)NO)c3)nc(N3CCOCC3)nc21 [compound 1] | the hyperacetylation effect is dose-dependent | Hyperacetylation of H3 in PC-3 tumors was confirmed |

Source: patent US9957270B2, “Fused pyrimidine-based hydroxamate derivatives” (Agency for Science, Technology and Research, priority 2014, dated 2018)
